Test system: Aspergillus brasiliensis
Test: Antimicrobial activity on ceramic tiles, visual evaluation of fungal growth
Assay type: cell-based
Conditions: 10 = full fungal growth coverage, 0 = complete absence of fungal growth; tiles rinsed with 0.1 wt. % SLS; incubated 7 days at 25° C.
Procedure: A 2 wt. % aqueous dispersion of Polymer 1 salted with 2 wt. % chlorhexidine free base was assayed for antimicrobial activity on ceramic tiles. Control formulations containing Polymer 2 (no acid groups) 2 wt. % aqueous dispersion combined with 2 wt. % chlorhexidine gluconate, chlorhexidine (1 wt. % active material in sterilized deionized water) and benzalkonium chloride (1 wt. % active material in sterilized deionized water) were prepared for comparison. The tiles (Homebase Gloss Mini-Metro wall tiles measuring 7.5 cm×15 cm×0.6 cm thick) were sprayed with the dispersion of the salted Polymer 1 and the control formulations. The treated tiles were dried overnight in a biological control cabinet (Nuaire model no. NU 4005) at 20° C. and 45% RH. The dried tiles were removed from the biological control cabinet and each tile was rinsed with 400 ml of a sterile solution of 0.1 wt. % sodium laurel sulfate in deionized water. A spore suspension of Aspergillus brasiliensis cultured on malt extract agar was prepared in sterilized deionized water (concentration: 1×10^8 cfu/ml) and applied to each tile with a handheld spray bottle (nozzle set on spray position). The treated tiles were placed in the biological cabinet at 20° C. and 45% RH and dried for 30 mins. […] After incubating for 7 days the tiles were removed and visually evaluated for fugal growth.

Row | Compound | Fungal Coverage Rating (average of 10 treated tiles)
1 | N=C(NCCCCCCNC(=N)NC(=N)Nc1ccc(Cl)cc1)NC(=N)Nc1ccc(Cl)cc1 [Control (chlorhexidine), chlorhexidine] | 5
2 | benzalkonium chloride [Control (benzalkonium chloride)] | 6
